Our source for the IC50 values is patent US7247646B2, “Benzopyranone compounds, compositions thereof, and methods of treatment therewith” (Signal Pharmaceuticals, LLC, priority 2003, dated 2007).

Values joined by “and” are separate entries in the source; they are usually repeats but may differ in a detail not shown here. Equal entries are not always repeated.

Holding throughout (type): cell-based
For experiment [1], the system named is MCF-7 breast cancer cells. Description: Inhibition of 17β-estradiol-dependent MCF-7 breast cancer cell proliferation (3H-thymidine incorporation). As to conditions: Homo sapiens, MCF7; with 0.1 nM 17β-estradiol, 72 h, then 3H-thymidine 4 h; compound 0.1–1000 nM. How it is done: MCF-7 cells represent an excellent in vitro system to study the effects of compounds on estrogen-dependent breast cancer growth. (May, F. E. B.; Westley, B. R. J. Biol. Chem. 262:15894–15899, 1987). Benzopyranone Compounds having an IC50<100 nM are particularly useful as anti-breast cancer agents in vivo.
MCF-7 breast carcinoma cells were plated in 24-well dishes at a density of 5×10^3 cells/well in phenol-red free DMEM:F-12 (1:1) medium containing 1% antibiotics, 0.05% mercaptoethanol, 0.01% ethanolamine, 0.42 ng/mL sodium selenite and 5% charcoal-stripped FCS.
Illustrative Benzopyranone Compounds (0.1–1000 nM in 0.2% DMSO) and 0.1 nM 17β-estradiol were added to the cultured MCF-7 breast cancer cells for 72 h. Subsequently, ^3H-labeled thymidine was added and its incorporation into cells was measured following 4 h incubation. The results (Table 2) are expressed as an IC50 (nM) value which is the concentration of the Benzopyranone Compound sufficient to inhibit the growth of MCF-7 breast cancer cells by 50% relative to controls.

For another experiment, the target named is T1, human ER-α (Homo sapiens, UniProt P03372).
T1 construct: stably transfected with expression vectors for human full-length ER-α or ER-β; expressed in transfected cells
T1 sequence (P03372 1-595): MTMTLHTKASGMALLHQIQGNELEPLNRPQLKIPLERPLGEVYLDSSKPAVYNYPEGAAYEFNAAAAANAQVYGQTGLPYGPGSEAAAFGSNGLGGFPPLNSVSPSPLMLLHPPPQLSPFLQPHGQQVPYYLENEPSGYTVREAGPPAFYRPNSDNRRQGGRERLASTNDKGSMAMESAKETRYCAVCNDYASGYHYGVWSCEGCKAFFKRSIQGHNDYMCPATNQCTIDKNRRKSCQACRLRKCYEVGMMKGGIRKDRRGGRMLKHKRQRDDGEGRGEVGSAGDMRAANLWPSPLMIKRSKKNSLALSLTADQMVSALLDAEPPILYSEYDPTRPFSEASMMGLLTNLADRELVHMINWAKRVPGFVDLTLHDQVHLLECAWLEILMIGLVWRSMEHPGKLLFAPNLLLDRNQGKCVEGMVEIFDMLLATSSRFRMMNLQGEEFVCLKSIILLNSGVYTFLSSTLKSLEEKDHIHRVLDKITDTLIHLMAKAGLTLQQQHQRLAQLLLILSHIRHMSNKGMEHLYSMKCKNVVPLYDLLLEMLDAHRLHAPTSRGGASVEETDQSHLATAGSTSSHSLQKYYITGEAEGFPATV
Description: Inhibition of IL-6 release from U-2 OS osteosarcoma cells stably transfected with human ER-α. Conditions: IL-6 production (ELISA) after 2.5 ng/ml TNFα and 1 ng/ml IL-1β stimulation, 24 h; compound 0.01–1000 nM; vehicle = 100%; read-out: IC50 (nM) U2 OS (ER-α). The protocol:
(§1) Illustrative Benzopyranone Compounds were tested for their ability to inhibit IL-6 release from human U-2 OS osteosarcoma cells stably transfected with human ER-α or ER-β. (Stein, B.; Yang, M. X. Mol. Cell. Biol 15: 4971–4979, 1995; Poli, V. et. al., EMBO J. 13:1189–1196, 1994). […] Benzopyranone Compounds having an IC50<100 nM are particularly useful as bone resorption inhibitors in vivo. Accordingly, the Benzopyranone Compounds, are particularly useful for the treatment of osteoporosis, Paget's disease and metastatic bone cancer. These Benzopyranone Compounds are also useful as anti-cancer agents, since elevated IL-6 levels are responsible for certain cancers such as multiple myeloma, prostate cancer, ovarian cancer, renal carcinoma and cervical carcinoma.
(§2) Human U-2 OS osteosarcoma cells (ATCC) were stably transfected with expression vectors for human full-length ER-α or ER-β using standard molecular biology techniques. Stable subclones were generated that expressed high levels of ER-α or ER-β mRNA. The expression of ER-α or ER-β was confirmed using RNase protection analysis.
(§3) Cells were plated into 96-well plates at a density of 80,000 cells per well in phenol red-free media with charcoal-stripped fetal calf serum. Twenty four hours later, cells were either treated with vehicle (0.2% DMSO) or a Benzopyranone Compound (0.01–1000 nm in 0.2% DMSO). Thirty minutes later cells were stimulated with 2.5 ng/ml TNFα and 1 ng/ml IL-1β. Twenty-four hours later the media supernatant was analyzed for cytokine production (IL-6) using commercially available ELISA kits following the manufacturer's instructions. Cytokine production in the presence of vehicle (0.2% DMSO) was set to 100%.
(§4) The results (Table 2) are expressed as an IC50 (nM) value which is the concentration of the Benzopyranone Compound sufficient to inhibit the production of IL-6 50% relative to the amount of IL-6 produced in the presence of vehicle.

In another experiment the target is T2, human ER-β (Homo sapiens, UniProt Q92731).
T2 construct: stably transfected with expression vectors for human full-length ER-α or ER-β; expressed in transfected cells
T2 sequence (Q92731 whole entry): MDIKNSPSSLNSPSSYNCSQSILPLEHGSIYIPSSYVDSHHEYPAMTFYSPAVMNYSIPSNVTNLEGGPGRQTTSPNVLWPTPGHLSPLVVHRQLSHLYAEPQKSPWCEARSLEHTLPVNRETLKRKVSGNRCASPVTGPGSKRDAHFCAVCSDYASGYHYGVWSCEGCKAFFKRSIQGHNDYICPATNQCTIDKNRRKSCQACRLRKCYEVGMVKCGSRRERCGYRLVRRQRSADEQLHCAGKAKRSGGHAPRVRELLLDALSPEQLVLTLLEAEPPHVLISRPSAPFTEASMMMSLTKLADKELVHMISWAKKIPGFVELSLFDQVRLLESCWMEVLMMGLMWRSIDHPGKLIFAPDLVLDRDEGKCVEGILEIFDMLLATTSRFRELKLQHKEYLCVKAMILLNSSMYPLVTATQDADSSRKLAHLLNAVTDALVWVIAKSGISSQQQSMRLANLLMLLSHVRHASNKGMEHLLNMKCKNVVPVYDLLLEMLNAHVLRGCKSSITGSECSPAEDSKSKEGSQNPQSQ
Description: Inhibition of IL-6 release from U-2 OS osteosarcoma cells stably transfected with human ER-β. Conditions: IL-6 production (ELISA) after 2.5 ng/ml TNFα and 1 ng/ml IL-1β stimulation, 24 h; compound 0.01–1000 nM; vehicle = 100%; read-out: IC50 (nM) U2 OS (ER-β). The protocol: as §1, §2, §3, §4

In the case of `CC(=O)c1cc2c(Cc3ccc(OCCN4CCCC4)cc3)c(-c3ccc(C(F)(F)F)cc3)c(=O)oc2cc1O`, the IC50 in experiment [1] was above 1000 nM; on human ER-α it was 850 nM and > 1000 nM; on human ER-β, above 1000 nM.
With `Cc1cc2c(Cc3ccc(OCCN4CCCC4)cc3)c(-c3ccc(C(F)(F)F)cc3)c(=O)oc2cc1O`, the IC50 is 59.5 nM in experiment [1], 13.3 nM on human ER-α and above 1000 nM on human ER-β.
The like results for `Cc1c(O)ccc2c(Cc3ccc(OCCN4CCCC4)cc3)c(-c3ccc(Cl)cc3Cl)c(=O)oc12` were, in that order, 35 nM, 6.9 nM and below 1000 nM.
For `Cc1cc2c(Cc3ccc(OCCN4CCCC4)cc3)c(-c3ccc(Cl)cc3Cl)c(=O)oc2cc1O`, in that order: 10 nM, 1.7 nM and above 1000 nM.
For `CC(=O)c1c(O)ccc2c(Cc3ccc(OCCN4CCCC4)cc3)c(-c3ccc(C(F)(F)F)cc3)c(=O)oc12`, in that order: 185 nM, 39 nM and below 1000 nM.
As for `CC(O)c1cc2c(Cc3ccc(OCCN4CCCC4)cc3)c(-c3ccc(C(F)(F)F)cc3)c(=O)oc2cc1O` (stereo not shown), the IC50 on human ER-α was 850 nM and > 1000 nM; at human ER-β, above 1000 nM.
As for `Cc1c(O)ccc2c(Cc3ccc(OCCN4CCCC4)cc3)c(-c3ccc(Cl)cc3)c(=O)oc12`, the values for the IC50 (in experiment [1]; on human ER-α; on human ER-β) were below 1000 nM, 285 nM and below 1000 nM, respectively.
Take `Cc1c(O)ccc2c(Cc3ccc(OCCN4CCCC4)cc3)c(-c3ccc(C(F)(F)F)cc3)c(=O)oc12`: the results for the half-inhibitory concentration (IC50) (in experiment [1]; on human ER-α; at human ER-β) were 235 nM, 55.5 nM and below 1000 nM, respectively.
For `CC(=O)c1c(O)ccc2c(Cc3ccc(OCCN4CCCC4)cc3)c(-c3ccc(Cl)cc3Cl)c(=O)oc12`, in that order: 112 nM, 5 nM and below 1000 nM.
On to `O=c1oc2cc(O)c(Br)cc2c(Cc2ccc(OCCN3CCCC3)cc2)c1-c1ccc(C(F)(F)F)cc1`, for which the concentration for half-maximal inhibition (IC50) in experiment [1] is above 1000 nM; at human ER-α it was 310 nM and > 1000 nM; on human ER-β, above 1000 nM.
For the molecule `N#Cc1c(O)ccc2c(Cc3ccc(OCCN4CCCC4)cc3)c(-c3ccc(C(F)(F)F)cc3)c(=O)oc12`, the IC50 on human ER-α is 390 nM; at human ER-β, above 1000 nM.
